# Data as given in patent publication US20230017045A1, “PYRIDINE AND PYRIMIDINE CARBOXYLATE HERBICIDES AND METHODS OF USE THEREOF” (Dow AgroSciences LLC, priority 2017, published 2023).
# Read-outs that look alike come from different tables or passages of the source.
# Tested on: test plant species
# Assay: Post-emergent herbicidal activity test (greenhouse, foliar spray, visual growth reduction)
# Type: in vivo
# Conditions: post-emergence, 336 h, 140 g ai/ha
# Procedure, shortened: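 Visual scoring 14 d after treatment (0 = no injury, 100 = complete control) against nontreated and solvent-blank plants gave percent growth reduction. Foliar application used a track sprayer delivering 187 L/ha to seedlings at first or second true leaf stage, grown at 23–29 °C day, ~15 h photoperiod.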
# [1] = ECHCG: barnyardgrass (Echinochloa crus-galli), 14 days after application, read-out: Visual Growth Reduction (%) 14 Days After Application, ECHCG
# [2] = IPOHE: ivy-leaf morning glory (Ipomoea hederacea), 14 days after application, read-out: Visual Growth Reduction (%) 14 Days After Application, IPOHE
# [3] = KCHSC: kochia (Bassia scoparia), 14 days after application, read-out: Visual Growth Reduction (%) 14 Days After Application, KCHSC
# [4] = ORYSA: rice (Oryza sativa), 14 days after application, read-out: Visual Growth Reduction (%) 14 Days After Application, ORYSA
# [5] = SETFA: giant foxtail (Setaria faberi), 14 days after application, read-out: Visual Growth Reduction (%) 14 Days After Application, SETFA
# [6] = SORVU: grain sorghum (Sorghum vulgare), 14 days after application, read-out: Visual Growth Reduction (%) 14 Days After Application, SORVU
# [7] = STEME: common chickweed (Stellaria media), 14 days after application, read-out: Visual Growth Reduction (%) 14 Days After Application, STEME
# [8] = TRZAS: wheat, spring (Triticum aestivum), 14 days after application, read-out: Visual Growth Reduction (%) 14 Days After Application, TRZAS
# [9] = blackgrass (Alopecurus myosuroides), 14 Days After Application, read-out: Visual Growth Reduction (%) ALOMY
# [10] = canada thistle (Cirsium arvense), 14 Days After Application, read-out: Visual Growth Reduction (%) CIRAR
# [11] = crabgrass (Digitaria sanguinalis), 14 Days After Application, read-out: Visual Growth Reduction (%) DIGSA
# [12] = lambsquarters (Chenopodium album), 14 Days After Application, read-out: Visual Growth Reduction (%) CHEAL
# [13] = redroot pigweed (Amaranthus retroflexus), 14 Days After Application, read-out: Visual Growth Reduction (%) AMARE
# [14] = wild oat (Avena fatua), 14 Days After Application, read-out: Visual Growth Reduction (%) AVEFA
# [15] = yellow nutsedge (Cyperus esculentus), 14 Days After Application, read-out: Visual Growth Reduction (%) CYPES
# [16] = ALOMY: blackgrass (Alopecurus myosuroides), 14 days after application, read-out: Visual Growth Reduction (%) 14 Days After Application, ALOMY
# [17] = AMARE: redroot pigweed (Amaranthus retroflexus), 14 days after application, read-out: Visual Growth Reduction (%) 14 Days After Application, AMARE
# [18] = AVEFA: wild oat (Avena fatua), 14 days after application, read-out: Visual Growth Reduction (%) 14 Days After Application, AVEFA
# [19] = CHEAL: lambsquarters (Chenopodium album), 14 days after application, read-out: Visual Growth Reduction (%) 14 Days After Application, CHEAL
# [20] = CIRAR: canada thistle (Cirsium arvense), 14 days after application, read-out: Visual Growth Reduction (%) 14 Days After Application, CIRAR
# [21] = CYPES: yellow nutsedge (Cyperus esculentus), 14 days after application, read-out: Visual Growth Reduction (%) 14 Days After Application, CYPES
# [22] = DIGSA: crabgrass (Digitaria sanguinalis), 14 days after application, read-out: Visual Growth Reduction (%) 14 Days After Application, DIGSA
Structure (SMILES),pest or weed control at 140 g/ha [1],pest or weed control at 140 g/ha [2],pest or weed control at 140 g/ha [3],pest or weed control at 140 g/ha [4],pest or weed control at 140 g/ha [5],pest or weed control at 140 g/ha [6],pest or weed control at 140 g/ha [7],pest or weed control at 140 g/ha [8],pest or weed control at 140 g/ha [9],pest or weed control at 140 g/ha [10],pest or weed control at 140 g/ha [11],pest or weed control at 140 g/ha [12],pest or weed control at 140 g/ha [13],pest or weed control at 140 g/ha [14],pest or weed control at 140 g/ha [15],pest or weed control at 140 g/ha [16],pest or weed control at 140 g/ha [17],pest or weed control at 140 g/ha [18],pest or weed control at 140 g/ha [19],pest or weed control at 140 g/ha [20],other results
"CCOc1cc(C(F)(F)F)ccc1-c1nc(C(=O)OC)c(Cl)cc1F [F311, Methyl 3-chloro-6-(2-ethoxy-4-(trifluoromethyl)phenyl)-5-fluoropicolinate]",0 to 29%,95 to 100%,0 to 29%,0 to 29%,0 to 29%,75 to 84%,0 to 29%,0 to 29%,0 to 29%,0 to 29%,0 to 29%,30 to 44%,0 to 29%,0 to 29%,0 to 29%,,,,,,
"COC(=O)c1nc(-c2ccc(Cl)c3ccccc23)c(F)cc1Cl [F346, Methyl 3-chloro-6-(4-chloronaphthalen-1-yl)-5-fluoropicolinate]",0 to 29%,30 to 44%,0 to 29%,0 to 29%,0 to 29%,0 to 29%,0 to 29%,0 to 29%,0 to 29%,,0 to 29%,0 to 29%,0 to 29%,0 to 29%,0 to 29%,,,,,,
"COC(=O)c1nc(-c2cc(N)c(C(F)(F)F)cc2Cl)ccc1Cl [F211, methyl 6-(5-amino-2-chloro-4-(trifluoromethyl)phenyl)-3-chloropicolinate]",60 to 74%,95 to 100%,75 to 84%,0 to 29%,45 to 59%,60 to 74%,0 to 29%,0 to 29%,0 to 29%,85 to 94%,30 to 44%,95 to 100%,85 to 94%,0 to 29%,0 to 29%,,,,,,
"C=C(C)COC(=O)c1nc(-c2ccc(C(F)(F)F)cc2Cl)ccc1Cl [F381, 2-Methylallyl 3-chloro-6-(2-chloro-4-(trifluoromethyl)phenyl)picolinate]",85 to 94%,95 to 100%,95 to 100%,0 to 29%,85 to 94%,85 to 94%,0 to 29%,60 to 74%,45 to 59%,85 to 94%,85 to 94%,95 to 100%,85 to 94%,45 to 59%,0 to 29%,,,,,,
"COC(=O)c1nc(-c2ccc(C(F)(F)F)cc2)c(Cl)cc1Cl [F106, Methyl 3,5-dichloro-6-(4-(trifluoromethyl)phenyl)picolinate]",0 to 29%,45 to 59%,0 to 29%,0 to 29%,0 to 29%,30 to 44%,0 to 29%,0 to 29%,,,,,,,,0 to 29%,45 to 59%,0 to 29%,30 to 44%,0 to 29%,pest or weed control at 140 g/ha [21]: 0 to 29%; pest or weed control at 140 g/ha [22]: 45 to 59%
"COC(=O)c1nc(-c2ccc3ncoc3c2)ccc1Cl [F262, Methyl 6-(benzo[d]oxazol-6-yl)-3-chloropicolinate]",0 to 29%,30 to 44%,0 to 29%,0 to 29%,0 to 29%,0 to 29%,0 to 29%,0 to 29%,0 to 29%,0 to 29%,0 to 29%,30 to 44%,0 to 29%,0 to 29%,0 to 29%,,,,,,
"COC(=O)c1nc(-c2ccc(OC(F)F)cc2OC)c(F)cc1Cl [F161, Methyl 3-chloro-6-4-(difluoromethoxy)-2-methoxyphenyl)-5-fluoropicolinate]",85 to 94%,95 to 100%,85 to 94%,0 to 29%,85 to 94%,95 to 100%,30 to 44%,60 to 74%,,,,,,,,,,,,,
"COC(=O)c1nc(-c2ccc(-c3ccc(F)cc3)cc2Cl)ccc1Cl [F25, methyl 3-chloro-6-(3-chloro-4′-fluoro-[1, 1′-biphenyl]-4-yl) picolinate]",0 to 29%,0 to 29%,0 to 29%,0 to 29%,0 to 29%,30 to 44%,0 to 29%,0 to 29%,,,,,,,,0 to 29%,0 to 29%,0 to 29%,0 to 29%,0 to 29%,pest or weed control at 140 g/ha [21]: 0 to 29%; pest or weed control at 140 g/ha [22]: 0 to 29%
"O=C(O)c1nc(-c2ccc(C(F)(F)F)nc2)c(Cl)cc1Cl [F84, 3,5-dichloro-6′-(trifluoromethyl)-[2,3′-bipyridine]-6-carboxylic acid]",0 to 29%,0 to 29%,0 to 29%,0 to 29%,0 to 29%,0 to 29%,0 to 29%,0 to 29%,,,,,,,,0 to 29%,0 to 29%,0 to 29%,45 to 59%,0 to 29%,pest or weed control at 140 g/ha [21]: 0 to 29%; pest or weed control at 140 g/ha [22]: 30 to 44%
"COC(=O)c1nc(-c2ccc(SC(F)(F)F)cc2)ccc1Cl [F97, Methyl 3-chloro-6-(4-((trifluoromethyl)thio)phenyl)picolinate]",0 to 29%,0 to 29%,0 to 29%,0 to 29%,0 to 29%,0 to 29%,0 to 29%,0 to 29%,,,,,,,,0 to 29%,0 to 29%,0 to 29%,0 to 29%,0 to 29%,pest or weed control at 140 g/ha [21]: 0 to 29%; pest or weed control at 140 g/ha [22]: 0 to 29%
